Experiment [1] has as its target T1, BACE (Homo sapiens, UniProt P56817).
T1 construct: Cells stably expressing Amyloid Precursor Protein (APP) were plated at a density of 40K cells/well in 96 well plates; endogenous in cells
As to the kind of experiment: In vitro enzymatic BACE FRET assay (Enzyme Assay). Format: biochemical. The note with it: pH 4.2, enzyme 0.2 nM, FRET substrate 50 nM. As for the experimental part: In Vitro Enzymatic BACE FRET (Fluorescence Resonance Energy Transfer) Assay (Enzyme Assay)
Assay buffer is 0.05 M acetate, pH 4.2, 10% DMSO final, 100 uM genapol (which is a nonionic detergent, below it's Critical Micelle Concentration). Enzyme (0.2 nM) is pre-incubated for one hour with inhibitors added in 1 uL of DMSO. Then the assay is started by the addition of FRET substrate (50 nM) and incubated for one hour. The FRET assay is terminated with by addition of Tris buffer, which raises the pH to neutrality, and the fluorescence is determined The FRET substrate is a peptide with commercially available fluorophore and quencher, on opposite sides of the BACE cleavage site. Proteolytic cleavage of the FRET substrate releases quenching of fluorescence (excitation 488 nm and […]).

In experiment [2] the target is T1, BACE. In words: BACE cell-based assay (Cell Assay), inhibition of Aβ40 by sandwich ELISA. As to conditions: Aβ40 in conditioned medium of cells stably expressing APP, 24 h incubation. Here is the method:
BACE Cell-Based Assay (Cell Assay)
The cell-based assay measures inhibition or reduction of Aβ40 in conditioned medium of test compound treated cells expressing amyloid precursor protein.
Cells stably expressing Amyloid Precursor Protein (APP) were plated at a density of 40K cells/well in 96 well plates (Costar). The cells were cultivated for 24 hours at 37° C. and 5% CO2 in DMEM supplemented with 10% FBS. The test compounds were then added to cells in 10-point dose response concentrations with the starting concentration being either 100 μM or 10 μM. The compounds were diluted from stock solutions in DMSO and the final DMSO concentration of the test compounds on cells was 0.1%. After 24 h of incubation with the test compounds the supernatant conditioned media was collected and the Aβ40 levels were determined using a sandwich ELISA. The IC50 of the compound was calculated from the percent of control or percent inhibition of Aβ40 as a function of the concentration of the test compound.
The sandwich ELISA to detect Aβ40 was performed in 96 well microtiter plates, which were pre-treated with goat anti-rabbit IgG (Pierce). The capture and detecting antibody pair that were used to detect Aβ40 from cell supernatants were affinity purified pAb40 (Biosource) and biotinylated 6E10 (Signet Labs Inc.), respectively. The optimal concentration for the pAb40 antibody was 3 μg/ml in Superblock/TBS (Pierce) that was supplemented with 0.05% Tween 20 (Sigma). Optimal concentration for the detection antibody 6E10-biotinylated was 0.5 μg/ml in Superblock/TBS (Pierce) that had been supplemented with 2% normal goat serum and 2% normal mouse serum.
Cellular supernatants were incubated with the capture antibody for 3 h at 4° C., followed by 3 wash steps in TBS-tween (0.05%). The detecting antibody incubation was for 2 h at 4° C., again followed by the wash steps as described previously. The final readout of the ELISA is Time-Resolved Fluorescence (counts per minute) using Delfia reagents Streptavidin-Europium and Enhancement solutions (Perkin Elmer) and the Victor 2 multilabel counter (Perkin Elmer).
(In general: In an ELISA, binding on a coated surface is turned into a signal by an enzyme label.)

T1 sequence (P56817 46-501): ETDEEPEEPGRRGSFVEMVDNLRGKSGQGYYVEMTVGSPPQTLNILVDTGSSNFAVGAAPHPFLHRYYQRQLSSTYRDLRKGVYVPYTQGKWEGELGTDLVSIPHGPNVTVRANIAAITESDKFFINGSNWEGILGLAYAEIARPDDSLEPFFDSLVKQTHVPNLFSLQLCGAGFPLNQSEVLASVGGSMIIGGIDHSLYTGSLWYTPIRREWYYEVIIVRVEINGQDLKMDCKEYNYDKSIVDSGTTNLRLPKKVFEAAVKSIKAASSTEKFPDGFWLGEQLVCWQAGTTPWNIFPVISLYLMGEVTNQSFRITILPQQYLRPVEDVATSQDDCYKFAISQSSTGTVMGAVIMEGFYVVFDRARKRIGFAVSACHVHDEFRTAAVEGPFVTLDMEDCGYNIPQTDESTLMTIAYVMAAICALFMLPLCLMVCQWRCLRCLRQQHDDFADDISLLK

`CC(C)(C)Cc1cnc2c(c1)[C@@H](NC[C@@H](O)[C@H](Cc1ccc(F)cc1)Nc1ncnc3sccc13)CC1(CCC1)O2` [Example 35, (2R,3S)-1-(((4′S)-6′-(2,2-dimethylpropyl)-3′,4′-dihydrospiro[cyclobutane-1,2′-pyrano[2,3-b]pyridin]-4′-yl)amino)-4-(4-fluorophenyl)-3-(thieno[2,3-d]pyrimidin-4-ylamino)-2-butanol]: the figures for the IC50 in experiment [1] and in experiment [2] were 10 to 25 µM and 0.1 to 1 µM, respectively.

Consider `CC(C)(C)Cc1cnc2c(c1)[C@@H](NC[C@@H](O)[C@H](Cc1ccc(F)cc1)Nc1cc(Cl)ncn1)CC1(CCC1)O2` [Example 28, (2R,3S)-3-((6-chloro-4-pyrimidinyl)amino)-1-(((4′S)-6′-(2,2-dimethylpropyl)-3′,4′-dihydrospiro[cyclobutane-1,2′-pyrano[2,3-b]pyridin]-4′-yl)amino)-4-(4-fluorophenyl)-2-butanol], for which the IC50 lay in the range of 1 to 5 µM in experiment [1] and 10 to 25 µM in experiment [2].

`CC(C)(C)Cc1cnc2c(c1)[C@@H](NC[C@H](O)[C@H](Cc1ccccc1)Nc1ccccc1F)CC1(CCC1)O2` [Example 41, (2S,3S)-1-(((4′S)-6′-(2,2-dimethylpropyl)-3′,4′-dihydrospiro[cyclobutane-1,2′-pyrano[2,3-b]pyridin]-4′-yl)amino)-3-((2-fluorophenyl)amino)-4-phenyl-2-butanol]: the half-inhibitory concentration (IC50) in experiment [1] and in experiment [2] was 10 to 25 µM throughout.

For `CCc1ccc2c(c1)[C@@H](NC[C@@H](O)[C@H](Cc1ccccc1)Nc1nc3ccccc3o1)CC1(CCC1)O2` [Example 36, (2R,3S)-3-(1,3-benzoxazol-2-ylamino)-1-(((4S)-6-ethyl-3,4-dihydrospiro[chromene-2,1′-cyclobutan]-4-yl)amino)-4-phenyl-2-butanol], the values for the concentration for half-maximal inhibition (IC50) in experiment [1] and in experiment [2] were 10 to 25 µM and 1 to 5 µM, respectively.

As for `CC(C)(C)Cc1cnc2c(c1)[C@@H](NC[C@@H](O)[C@H](Cc1cc(F)cc(F)c1)Nc1ccccc1F)CC1(CCC1)O2` [Example 26, (2R,3S)-4-(3,5-difluorophenyl)-1-(((4′S)-6′-(2,2-dimethylpropyl)-3′,4′-dihydrospiro[cyclobutane-1,2′-pyrano[2,3-b]pyridin]-4′-yl)amino)-3-((2-fluorophenyl)amino)-2-butanol], the values for the IC50 in experiment [1] and in experiment [2] were 1 to 5 µM and 10 to 25 µM, respectively.

By IC50 is commonly meant the concentration at which inhibition is half-maximal. A low value points to greater potency in that assay.

(Values after US7951838B2, “Substituted spirocyclic chromanamine compounds as Beta-Secretase modulators and methods of use” (Amgen Inc., priority 2007, dated 2011).)
